According to patent US20220348662A1, “USE OF FGFR INHIBITORS IN FGFR-GENETICALLY ALTERED CANCERS TO ENHANCE PATIENT RESPONSE TO IMMUNE CHECKPOINT INHIBITORS IN SEQUENTIAL TREATMENT SETTINGS” (JANSSEN PHARMACEUTICA NV, priority 2019, published 2022):

Legend:
[1] = system: CD38+ T cells in peripheral blood; test: BLC2002 phase 1b immune cell profiling of blood by flow cytometry (T cell activation); format: in vivo, human; conditions: FIG. 4c; E8RJ cohort at C1D15, erdafitinib treatment alone (run-in)
Description: Blood for immune cell profiling were collected at four time points (C1D1, C1D15, C2D1 and C3D1) and subjected to flow cytometry analysis on a real time basis. T cell activation is quantified as fold increase in the proportions of 1) CD38+CD3, CD38+CD4, or CD38+CD8 T cells out of lymphocytes or CD3 T cell populations, and 2) CD38+ cells out of CD4+ or CD8+T cell populations, compared to the baseline proportion levels at C1D1.
Longitudinal blood samples were analyzed from DL2A (E8J cohort: Erda 8 mg+cetrelimab 240 mg), DL2B (E8RJ cohort: Erda 8 mg 28 days run-in +cetrelimab 240 mg), and DL2 (EJ cohort: Erda 8 mg with the potential dose adjustments to 9 mg depending on phosphate levels measured on C1D15+cetrelimab 240 mg).

[2] = system: advanced urothelial carcinoma; conditions: luminal 1 subtype compared with other bladder cancer subtypes; cited from earlier work

Compound | proportion of CD38+CD8 T cells compared to baseline C1D1 [1] | response rate by bladder cancer molecular subtype [2]
COc1cc(OC)cc(N(CCNC(C)C)c2ccc3ncc(-c4cnn(C)c4)nc3c2)c1 [erdafitinib, N-(3,5-dimethoxyphenyl)-N′-(1-methylethyl)-N-[3-(1-methyl-1H-pyrazol-4-yl)quinoxalin-6-yl]ethane-1,2-diamine] | dramatically increased | 
atezolizumab: checkpoint inhibitor; antibody that blocks the interaction between PD-1 and PD-L1 |  | lowest response rate
nivolumab: checkpoint inhibitor; antibody that blocks the interaction between PD-1 and PD-L1 |  | lowest response rate
